Measurements: patent US20220386606A1, “SPECIFICALLY SUBSTITUTED 3-PHENYL-5-SPIROCYCLOPENTYL-3-PYRROLIN-2-ONES AND THEIR USE AS HERBICIDES” (Bayer Aktiengesellschaft, priority 2019, published 2022)

What was measured:
ALOMY [1] = assay: Pre-emergence herbicidal action against ALOMY; assay type: in vivo, Alopecurus myosuroides; details: 320 g/ha, scored visually after 3 weeks vs untreated controls
Text: (§1) Seeds of monocotyledonous and dicotyledonous weed plants and crop plants are laid out in sandy loam soil in wood-fiber pots and covered with soil. The compounds of the invention, formulated in the form of wettable powders (WP) or as emulsion concentrates (EC), are then applied to the surface of the covering soil as aqueous suspension or emulsion at a water application rate equating to 600 to 800 L/ha with addition of 0.2% wetting agent.
(§2) After the treatment, the pots are placed in a greenhouse and kept under good growth conditions for the trial plants. The damage to the test plants is scored visually after a test period of 3 weeks by comparison with untreated controls (herbicidal activity in percent (%): 100% activity=the plants have died, 0% activity=like control plants).

AVEFA [2] = assay: Pre-emergence herbicidal action against AVEFA; assay type: in vivo, Avena fatua; details: 320 g/ha, scored visually after 3 weeks vs untreated controls
Text: as §1, §2

DIGSA [3] = assay: Pre-emergence herbicidal action against DIGSA; assay type: in vivo, Digitaria sanguinalis; details: 320 g/ha, scored visually after 3 weeks vs untreated controls
Text: as §1, §2

ECHCG [4] = assay: Pre-emergence herbicidal action against ECHCG; assay type: in vivo, Echinochloa crus-galli; details: 320 g/ha, scored visually after 3 weeks vs untreated controls
Text: as §1, §2

LOLRI [5] = assay: Pre-emergence herbicidal action against LOLRI (Table 8, titled post-emergence at 320 g/ha); assay type: in vivo, Lolium rigidum; details: table stands in the pre-emergence section
Text: as §1, §2

SETVI [6] = assay: Pre-emergence herbicidal action against SETVI; assay type: in vivo, Setaria viridis; details: 320 g/ha, scored visually after 3 weeks vs untreated controls
Text: as §1, §2

ALOMY [7] = assay: Post-emergence herbicidal action against ALOMY; assay type: in vivo, Alopecurus myosuroides; details: 80 g/ha, visual assessment after about 3 weeks
Protocol: (§3) Seeds of monocotyledonous and dicotyledonous weed and crop plants are laid out in sandy loam soil in wood-fiber pots, covered with soil and cultivated in a greenhouse under good growth conditions. 2 to 3 weeks after sowing, the test plants are treated at the one-leaf stage. The compounds of the invention, formulated in the form of wettable powders (WP) or as emulsion concentrates (EC), are then sprayed onto the green parts of the plants as aqueous suspension or emulsion at a water application rate equating to 600 to 800 l/ha with addition of 0.2% wetting agent. After the test plants have been left to stand in the greenhouse under optimal growth conditions for about 3 weeks, the action of the preparations is assessed visually in comparison to untreated controls (herbicidal action in percent (%): 100% activity=the plants have died, 0% activity=like control plants).

AVEFA [8] = assay: Post-emergence herbicidal action against AVEFA; assay type: in vivo, Avena fatua; details: 80 g/ha, visual assessment after about 3 weeks
Protocol: as §3

DIGSA [9] = assay: Post-emergence herbicidal action against DIGSA; assay type: in vivo, Digitaria sanguinalis; details: 80 g/ha, visual assessment about 3 weeks after treatment vs untreated controls
Protocol: as §3

ECHCG [10] = assay: Post-emergence herbicidal action against ECHCG; assay type: in vivo, Echinochloa crus-galli; details: 80 g/ha, visual assessment about 3 weeks after treatment vs untreated controls
Protocol: as §3

LOLRI [11] = assay: Post-emergence herbicidal action against LOLRI; assay type: in vivo, Lolium rigidum; details: 80 g/ha, visual assessment about 3 weeks after treatment vs untreated controls
Protocol: as §3

SETVI [12] = assay: Post-emergence herbicidal action against SETVI; assay type: in vivo, Setaria viridis; details: 80 g/ha, visual assessment about 3 weeks after treatment vs untreated controls
Protocol: as §3

| Structure (SMILES) | Pre-emergence action against ALOMY in % (ALOMY [1]) [%] | Pre-emergence action against AVEFA in % (AVEFA [2]) [%] | Pre-emergence action against DIGSA in % (DIGSA [3]) [%] | Pre-emergence action against ECHCG in % (ECHCG [4]) [%] | Pre-emergence herbicidal action against LOLRI in % (LOLRI [5]) [%] | Pre-emergence action against SETVI in % (SETVI [6]) [%] | Post-emergence action against ALOMY in % (ALOMY [7]) [%] | Post-emergence action against AVEFA in % (AVEFA [8]) [%] | Post-emergence action against DIGSA in % (DIGSA [9]) [%] | Post-emergence action against ECHCG in % (ECHCG [10]) [%] | Post-emergence action against LOLRI in % (LOLRI [11]) [%] | Post-emergence action against SETVI in % (SETVI [12]) [%] |
| --- | --- | --- | --- | --- | --- | --- | --- | --- | --- | --- | --- | --- |
| CC#Cc1cc(Br)c(C2=C(O)C3(CCC(COC)C3)NC2=O)c(OCC)c1 (stereo not drawn) [Example I-66] | 100 | 100 | 100 | 100 | 100 | 100 | 100 | 80 | 90 | 100 | 100 | 100 |
| C#CCOCC1CCC2(C1)NC(=O)C(c1c(F)cc(C#CC)cc1OC)=C2O (stereo not drawn) [Example I-74] | 100 | 90 | 100 | 100 | 100 | 100 | 90 | 80 | 90 | 100 | 90 | 100 |
| CC#Cc1cc(F)c(C2=C(OC(=O)OCC)C3(CCC(COC)C3)NC2=O)c(OC)c1 (stereo not drawn) [Example P-63] | 100 | 90 | 100 | 90 | 100 | 100 | 100 | 80 | 100 | 100 | 100 | 100 |
| CC#Cc1cc(F)c(C2=C(OC(=O)C(C)C)C3(CCC(COC)C3)NC2=O)c(OC)c1 (stereo not drawn) [Example P-66] | 100 | 100 | 100 | 100 | 90 | 100 | 90 | 90 | 100 | 100 | 100 | 100 |
| CC#Cc1cc(Br)c(C2=C(OC(=O)OCC)C3(CCC(COC)C3)NC2=O)c(OCC)c1 (stereo not drawn) [Example P-90] | 100 | 100 | 100 | 100 | 100 | 100 | 100 | 80 | 90 | 100 | 100 | 100 |
